Results reported in patent US20250161262A1, “Pharmaceutical Compositions and Methods for Treating Covid” (priority 2022, published 2025).
Converted amounts (≈) assume the structure as drawn.

Tests used:
[1] = tested on: Norovirus; test: Norovirus tests; format: cell-based; settings: one of the Norovirus tests; read-out: ECso
Source text: (§1) It is important to understand that mycophenolic acid's anti-viral effect is likely to require a small fraction (about 1-2% or less) of the clinical dose which is approved and commonly used for prevention of transplant rejection. For instance, Chan et al., 2013, p. […] For instance, in one of the Norovirus tests we document here, ECso of 0.151 mcg/mL was reported. Even less mycophenolic acid would be needed to treat viruses such as Influenza A HNI and RSV in which we report ECso <0.10 mcg/ml. Dramatically lower doses may suffice for mycophenolic acid. Therefore, it is not only possible to achieve adequate body levels of mycophenolic acid to treat these viruses clinically, but also a small fraction of the current clinical dose may be more than adequate. To et al, 2016 also presented data on page 1812 supporting these conclusions.

[2] = tested on: avian-origin influenza A (H7N9); settings: To et al. (2016); cited from earlier work
[3] = tested on: RSV; test: antiviral EC50 against RSV; format: cell-based; settings: human respiratory syncytial virus, read-out: ECso
Source text: as §1

[4] = tested on: Influenza A HNI; test: antiviral EC50 against Influenza A; format: cell-based; settings: Influenza A virus, read-out: ECso
[5] = tested on: virus; settings: cited from earlier work
[6] = tested on: pandemic flu H/415, A/Hong Kong/415742/2009, A(HINI)pdm09; settings: To et al. (2016); cited from earlier work
[7] = tested on: Influenza A(H1N1) strain A/WSN/1933; settings: Chan et al. (2013); cited from earlier work
[8] = tested on: seasonal influenza A(H3N2) virus; settings: To et al. (2016); cited from earlier work
[9] = tested on: MERS coronavirus; settings: MERS coronavirus patients; cited from earlier work

Row | SMILES | EC50 [1] | effectiveness against virus [2] | EC50 [3] | EC50 [4] | EC so ([5]; Chan et al., 2013, p. 612) | local concentrations at usual clinical doses, greater than needed ([5]; usual clinical doses of mycophenolic acid, Chan et al., 2013) | effectiveness against virus [6] | effectiveness against virus [7] | effectiveness against virus [8] | mortality [9]
1 | COc1c(C)c2c(c(O)c1C/C=C(\C)CCC(=O)O)C(=O)OC2 [mycophenolic acid, 6-(4-hydroxy-6-methoxy-7-methyl-3-oxo-1,3-dihydroisobenzofuran-5-yl)-4-methyl-hex-4-enoic acid] | 0.151 µg/mL (≈ 0.471 µM) | effective | < 0.1 µg/mL | < 0.1 µg/mL | 0.17 µg/mL | 60-300 × | effective | effectiveness | effective | 
2 | COc1c(C)c2c(c(O)c1C/C=C(\C)CCC(=O)OCCN1CCOCC1)C(=O)OC2 [mycophenolate mofetil, 2-morpholinoethyl ester of mycophenolic acid] |  |  |  |  |  |  |  |  |  | no mortality
